The test system of data set [1] is Staphylococcus aureus. The data set is described as follows: Antibacterial activity against methicillin-sensitive Staphylococcus aureus ATCC 25923 after 24 hrs by broth microdilution method. Particulars: ATCC 25923, 24 h. The format is functional.
The subject of data set [2] is Vero. Kind of data set: Cytotoxicity against African green monkey Vero cells assessed as inhibition of cell growth after 72 hrs by MTT assay. In kind it is cell-based. Particulars: Chlorocebus sabaeus. (Tetrazolium assays rely on reduction of a dye to a coloured formazan, in cell work by metabolically active cells.)
A short description of data set [3]: Cytotoxicity against african green monkey Vero cells assessed as cell death after 72 hrs by MTT assay. In kind it is cell-based. Particulars: chlorocebus sabaeus.
The test system of data set [4] is Staphylococcus aureus. Kind of data set: Antibacterial activity against methicillin-resistant Staphylococcus aureus isolate 14 after 24 hrs by broth microdilution method. The format is functional. Particulars: isolate 14, 24 h.
Data set [5] concerns Staphylococcus aureus. The data set is described as follows: Antibacterial activity against methicillin-resistant Staphylococcus aureus isolate 13 after 24 hrs by broth microdilution method. The format is functional. Particulars: isolate 13, 24 h.
Data set [6] concerns Staphylococcus aureus. Kind of data set: Antibacterial activity against methicillin-resistant Staphylococcus aureus isolate 12 after 24 hrs by broth microdilution method. Particulars: isolate 12, 24 h. The format is functional.
For data set [7], the system named is Staphylococcus aureus. Kind of data set: Antibacterial activity against methicillin-resistant Staphylococcus aureus isolate 11 after 24 hrs by broth microdilution method. The format is functional. Particulars: isolate 11, 24 h. (In general: In broth dilution the organism is exposed to a series of concentrations in liquid medium.)
The subject of data set [8] is Staphylococcus aureus. The data set is described as follows: Antibacterial activity against methicillin-resistant Staphylococcus aureus isolate 10 after 24 hrs by broth microdilution method. Particulars: isolate 10, 24 h. The format is functional.
The subject of data set [9] is Staphylococcus aureus. The data set is described as follows: Antibacterial activity against methicillin-resistant Staphylococcus aureus isolate 9 after 24 hrs by broth microdilution method. In kind it is functional. Particulars: isolate 9, 24 h.
Data set [10] concerns Staphylococcus aureus. Kind of data set: Antibacterial activity against methicillin-resistant Staphylococcus aureus isolate 8 after 24 hrs by broth microdilution method. In kind it is functional. Particulars: isolate 8, 24 h.
The test system of data set [11] is Staphylococcus aureus. Kind of data set: Antibacterial activity against methicillin-resistant Staphylococcus aureus isolate 7 after 24 hrs by broth microdilution method. In kind it is functional. Particulars: isolate 7, 24 h.
Data set [12] relates to Staphylococcus aureus. Kind of data set: Antibacterial activity against methicillin-resistant Staphylococcus aureus isolate 6 after 24 hrs by broth microdilution method. In kind it is functional. Particulars: isolate 6, 24 h.
Data set [13] has as its system Staphylococcus aureus. Kind of data set: Antibacterial activity against methicillin-resistant Staphylococcus aureus isolate 5 after 24 hrs by broth microdilution method. Particulars: isolate 5, 24 h. In kind it is functional.
Data set [14] has as its system Staphylococcus aureus. Kind of data set: Antibacterial activity against methicillin-resistant Staphylococcus aureus isolate 4 after 24 hrs by broth microdilution method. The format is functional. Particulars: isolate 4, 24 h.
The test system of data set [15] is Staphylococcus aureus. The data set is described as follows: Antibacterial activity against methicillin-resistant Staphylococcus aureus isolate 3 after 24 hrs by broth microdilution method. The format is functional. Particulars: isolate 3, 24 h.
Data set [16] deals with Staphylococcus aureus. Kind of data set: Antibacterial activity against methicillin-resistant Staphylococcus aureus isolate 2 after 24 hrs by broth microdilution method. In kind it is functional. Particulars: isolate 2, 24 h.
Data set [17] concerns Staphylococcus aureus. Kind of data set: Antibacterial activity against methicillin-resistant Staphylococcus aureus isolate 1 after 24 hrs by broth microdilution method. The format is functional. Particulars: isolate 1, 24 h.
The test system of data set [18] is Staphylococcus aureus. Kind of data set: Selectivity index, Ratio of CC50 for african green monkey Vero cells to IC50 for Staphylococcus aureus.
Data set [19] deals with Staphylococcus aureus. The data set is described as follows: Antibacterial activity against methicillin-resistant Staphylococcus aureus isolate 5 at 30 ug after 24 hrs by disk diffusion assay. The format is functional. Particulars: isolate 5, 24 h, read-out: DIZ. (In agar diffusion tests the substance spreads into inoculated agar from a disc or well.)
Data set [20] concerns Staphylococcus aureus. The data set is described as follows: Antibacterial activity against methicillin-resistant Staphylococcus aureus isolate 4 at 30 ug after 24 hrs by disk diffusion assay. In kind it is functional. Particulars: isolate 4, 24 h, read-out: DIZ.

Structures are written as SMILES. Values after ≈ are worked out from the molar mass of the structure shown.

For orientation: MIC means the lowest concentration that inhibits growth of the organism. In the case of `CC(C)=CCC/C(C)=C/Cc1c(O)ccc(C(=O)/C=C/c2ccc(O)c(CC=C(C)C)c2)c1O`, it took 31.2 µg/mL (≈ 67.7 µM) to inhibit growth in data set [1] (MIC).
The IC50 is the point on the concentration scale where inhibition reaches its midpoint. By CC50 is commonly meant the concentration at which the toxic effect on the cells reaches its halfway point. Take `COc1cc(C(=O)N/N=C/c2ccc([N+](=O)[O-])s2)cc(OC)c1OC`: the IC50 in data set [2] is 7.81 µg/mL (≈ 21.4 µM). For the same compound, the CC50 at 72 h in data set [3] turned out to be 857 µg/mL (≈ 2340 µM). The MIC in data set [4], in data set [5], in [6], in data set [7], in data set [8] and in data set [9] was 125 µg/mL (≈ 342 µM) each time. The minimum inhibitory concentration (MIC) in data set [10] was determined as 125 µg/mL (≈ 342 µM); in data set [11], 125 µg/mL (≈ 342 µM); in [12] it was 125 µg/mL (≈ 342 µM); in data set [13] it was 125 µg/mL (≈ 342 µM); in [14], 15.6 µg/mL (≈ 42.8 µM); in data set [15], 125 µg/mL (≈ 342 µM). Further, the MIC in data set [16] came out at 125 µg/mL (≈ 342 µM); in [17], 125 µg/mL (≈ 342 µM); in [1], 15.6 µg/mL (≈ 42.8 µM). Further, the “Ratio CC50/IC50” value in [18] worked out at 109.7.
Turning to `O=C(CCc1ccccc1O)c1ccccc1`, the MIC in data set [4], in data set [5], in [6], in data set [7], in data set [8] and in data set [9] was at least 1000 µg/mL each time. Moreover, the MIC in data set [10], in [11], in [12], in data set [13], in data set [14] and in data set [15] was at least 1000 µg/mL throughout. The minimum inhibitory concentration (MIC) in [16] is at least 1000 µg/mL; in data set [17] it was at least 1000 µg/mL; in [1], 500 µg/mL (≈ 2210 µM).
In the case of `COc1ccc(C(=O)/C=C/c2ccc(O)cc2)c(O)c1CC=C(C)C`, the MIC in data set [4], in data set [5], in data set [6], in [7], in [8] and in data set [9] was at least 1000 µg/mL each time. Besides, the minimum inhibitory concentration (MIC) in data set [10], in data set [11], in data set [12], in [13], in [14] and in [15] was at least 1000 µg/mL in each case. For the same compound, the MIC in data set [16] and in data set [17] was at least 1000 µg/mL each time.
Consider `O=C(N/N=C/c1ccc([N+](=O)[O-])o1)c1ccccc1`, for which the IC50 in [2] stood at 7.81 µg/mL (≈ 30.1 µM). The CC50 at 72 h in data set [3] was 489 µg/mL (≈ 1890 µM). The MIC in data set [4] was found to be 62.5 µg/mL (≈ 241 µM); in [5], 62.5 µg/mL (≈ 241 µM); in [6] it was 62.5 µg/mL (≈ 241 µM); in [7] it was 125 µg/mL (≈ 482 µM); in data set [8], 15.6 µg/mL (≈ 60.3 µM); in [9], 125 µg/mL (≈ 482 µM). Further, the MIC in data set [10] is 125 µg/mL (≈ 482 µM); in [11], 125 µg/mL (≈ 482 µM); in data set [12] it was 62.5 µg/mL (≈ 241 µM); in data set [13] it was 62.5 µg/mL (≈ 241 µM); in data set [14] it was 15.6 µg/mL (≈ 60.3 µM); in data set [15], 62.5 µg/mL (≈ 241 µM). For the same compound, the MIC in [16] was 62.5 µg/mL (≈ 241 µM); in [17] it was 125 µg/mL (≈ 482 µM); in data set [1], 62.5 µg/mL (≈ 241 µM). The “Ratio CC50/IC50” value in [18] is recorded as 62.6.
Regarding `CO[C@@]1(NC(=O)Cc2cccs2)C(=O)N2C(C(=O)O)=C(COC(N)=O)CS[C@@H]21` [CEFOXITIN], the zone of inhibition at 30 µg/disc in [19] was determined as 33 mm; in data set [20], 22 mm.
`CC(C)=CCc1c(O)ccc(C(=O)/C=C/c2ccc(O)cc2)c1O` [ISOBAVACHALCONE]: the IC50 in [2] amounted to 31.2 µg/mL (≈ 96.3 µM). Further, the CC50 at 72 h in data set [3] is 727 µg/mL (≈ 2240 µM). Besides, the MIC in [4] was found to be 62.5 µg/mL (≈ 193 µM); in data set [5] it was 125 µg/mL (≈ 385 µM); in [6], 62.5 µg/mL (≈ 193 µM); in data set [7], 62.5 µg/mL (≈ 193 µM); in data set [8], 125 µg/mL (≈ 385 µM); in data set [9], 62.5 µg/mL (≈ 193 µM). Moreover, the MIC in [10] was determined as 125 µg/mL (≈ 385 µM); in [11], 125 µg/mL (≈ 385 µM); in data set [12] it was 62.5 µg/mL (≈ 193 µM); in data set [13], 62.5 µg/mL (≈ 193 µM); in data set [14], 15.6 µg/mL (≈ 48.2 µM); in [15] it was 62.5 µg/mL (≈ 193 µM). Moreover, the minimum inhibitory concentration (MIC) in data set [16] is 62.5 µg/mL (≈ 193 µM); in data set [17], 62.5 µg/mL (≈ 193 µM); in [1], 31.2 µg/mL (≈ 96.3 µM). Further, the “Ratio CC50/IC50” value in [18] came to 23.25.
In the case of `O=C(/C=C/c1ccc(O)cc1)c1ccc(O)cc1O` [ISOLIQUIRITIGENIN], in data set [2], the IC50 came to 31.2 µg/mL (≈ 122 µM). In addition, in data set [3], the CC50 at 72 h was 464 µg/mL (≈ 1810 µM). Besides, the minimal inhibitory concentration (MIC) in data set [4], in data set [5], in data set [6], in data set [7], in data set [8] and in data set [9] was 62.5 µg/mL (≈ 244 µM) in each case. Besides, the MIC in data set [10], in [11], in [12], in data set [13], in data set [14] and in data set [15] was 62.5 µg/mL (≈ 244 µM) in each case. Moreover, the MIC in data set [16] was 62.5 µg/mL (≈ 244 µM); in [17], 62.5 µg/mL (≈ 244 µM); in data set [1] it was 31.2 µg/mL (≈ 122 µM). Further, in [18], the “Ratio CC50/IC50” value was determined as 14.8.
Take `O=C(CCc1ccc(O)cc1)c1c(O)cc(O)cc1O` [PHLORETIN]: the half-inhibitory concentration (IC50) in data set [2] is 125 µg/mL (≈ 456 µM). For the same compound, the CC50 at 72 h in data set [3] stood at 735 µg/mL (≈ 2680 µM). Moreover, the minimal inhibitory concentration (MIC) in data set [4], in data set [5], in data set [6], in data set [7], in data set [8] and in data set [9] was 250 µg/mL (≈ 912 µM) each time. Also, the MIC in data set [10], in data set [11], in [12], in data set [13], in [14] and in data set [15] was 250 µg/mL (≈ 912 µM) each time. The MIC in [16], in [17] and in data set [1] was 250 µg/mL (≈ 912 µM) throughout. Further, in [18], the “Ratio CC50/IC50” value came to 5.9.
Take `CN[C@H](CC(C)C)C(=O)N[C@H]1C(=O)N[C@@H](CC(N)=O)C(=O)N[C@H]2C(=O)N[C@H]3C(=O)N[C@H](C(=O)N[C@H](C(=O)O)c4cc(O)cc(O)c4-c4cc3ccc4O)[C@H](O)c3ccc(c(Cl)c3)Oc3cc2cc(c3O[C@@H]2O[C@H](CO)[C@@H](O)[C@H](O)[C@H]2O[C@H]2C[C@](C)(N)[C@H](O)[C@H](C)O2)Oc2ccc(cc2Cl)[C@H]1O` [VANCOMYCIN]: the MIC in data set [4], in data set [5], in data set [6], in data set [7], in data set [8] and in data set [9] was 0.8 µg/mL (≈ 0.552 µM) each time. The MIC in data set [10] amounted to 0.8 µg/mL (≈ 0.552 µM); in [11] it was 0.8 µg/mL (≈ 0.552 µM); in data set [12], 0.4 µg/mL (≈ 0.276 µM); in data set [13], 0.4 µg/mL (≈ 0.276 µM); in [14], 0.8 µg/mL (≈ 0.552 µM); in data set [15], 0.8 µg/mL (≈ 0.552 µM). The MIC was found to be 0.8 µg/mL (≈ 0.552 µM) in data set [16], 0.8 µg/mL (≈ 0.552 µM) in data set [17] and 0.2 µg/mL (≈ 0.138 µM) in data set [1].

The values are drawn from ChEMBL document CHEMBL1938275, “Antibacterial activity of chalcones, hydrazones and oxadiazoles against methicillin-resistant Staphylococcus aureus” (Bioorg Med Chem Lett, 2012).
